Reference: PMC5735376, “Dual Level Statistical Investigation of Equilibrium Solubility in Simulated Fasted and Fed Intestinal Fluid” (Molecular Pharmaceutics, 2017)
Like-named read-outs stand apart in the source and are kept apart here.

What was measured:
[1] = Statistical comparison of equilibrium solubility data sets (Mann-Whitney test / two-sample t-test); type: physicochemical; conditions: for statistical comparison of fasted against fed equilibrium solubility: current dual level DoE, where significant, fasted solubility lower than fed; for statistical comparison of dual level fasted with published fasted equilibrium solubility: current fasted arm vs published fasted DoE
Excerpt: The Kolmogorov normality test was used in Minitab to assess the normality distribution of each data set. A Mann–Whitney test was used to evaluate the median between two data sets (not normally distributed) and the two-sample t-test was used to evaluate the mean of two data sets (normally distributed).

[2] = Equilibrium solubility in simulated intestinal fluid, dual level DoE, fasted arm; type: physicochemical; conditions: for statistical significance of DoE factor BS:PL on equilibrium solubility / statistical significance of DoE factor bile salt on equilibrium solubility / statistical significance of DoE factor cholesterol on equilibrium solubility / statistical significance of DoE factor lecithin on equilibrium solubility / statistical significance of DoE factor monoglyceride on equilibrium solubility / statistical significance of DoE factor pH on equilibrium solubility / statistical significance of DoE factor sodium oleate on equilibrium solubility: fasted, current study (Figure 3)
Excerpt: (§1) For each media parameter (bile salt, lecithin, sodium oleate, monoglyceride, cholesterol, pH and BS: PL ratio) lower and upper limit concentration values for fasted and fed states were defined, Table 1. Using Minitab 17.2.1 and a custom experimental design, a 1/16 of the full factorial DoE with the seven factors and two levels (lower and upper limits) was constructed (8 experiments around the upper and lower levels plus two center points) separately for the fasted and the fed states. These two tables were then applied as an input for a factorial custom design of experiment which combined the fasted and fed using all 20 data points to provide an overall analysis. The study therefore consists of three arms, two smaller (10 data point) fasted and fed arms, which are then merged into a larger (20 data point) combined arm.
(§2) When designing and analyzing the DoE, only a factor’s main effects and 2 way interactions have been considered and 3 way interactions or more were not included. For each DoE the magnitude for each factor’s effect on equilibrium solubility was determined by the standardized effect value for all of the individual factors and the significant 2-way interactions. This value was used to articulate whether these factors are increasing or decreasing drug solubility.
(§3) The solution was prepared by the addition of an excess amount (above the estimated solubility) of solid for each compound investigated to a centrifuge tube (15 mL Corning Centristar cap, polypropylene RNase/DNase free, nonpyrogenic) followed by the addition of each component of the simulated intestinal fluid media according to the run order generated by the DoE. After all of the media components were added, pH was adjusted to 5, 6, or 7 according to the run order using 0.1 M HCl or 0.1 M KOH and tubes were capped and placed on an orbital shaker (OS 5 basic Yellowline, IKA, Germany) for 1 h after which the pH was readjusted if required. The 20 different tubes were then shaken in a tube rotator for 24 h at 40 rpm at 37 °C to simulate intestinal fluid conditions. After 24 h, a 1 mL amount was taken from each of the 20 tubes and transferred to a 1.5 mL Eppendorf tube then centrifuged at 15 000 rpm for 5 min. Following centrifugation 0.5 mL of the supernatant solution was transferred to an HPLC vial to analyze drug solubility using HPLC (Table 4).

[3] = Equilibrium solubility in simulated intestinal fluid, dual level DoE, fed arm; type: physicochemical; conditions: fed, current study (Figure 3)
Excerpt: as §1, §2, §3

[4] = design: method as in ref 14, Figure 2; conditions: fed, published; Figure 2; cited from earlier work
[5] = cited from earlier work
[6] = design: method as in ref 13, Figure 2; conditions: fasted, published; Figure 2; cited from earlier work
[7] = Equilibrium solubility in simulated intestinal fluid, dual level DoE, combined fasted and fed arm; type: physicochemical; conditions: for variability of equilibrium solubility: across DoE media, fasted or fed arm, Figures 1 and 2; for significant DoE factors influencing solubility: combined arm (seven possible factors per drug), significance ±2; for significant two way factor interactions on solubility: eight two way interactions, Figure 4
Excerpt: as §1, §2, §3

| SMILES | statistical comparison of fasted against fed equilibrium solubility [1] | statistical significance of DoE factor BS:PL on equilibrium solubility [2] | statistical significance of DoE factor bile salt on equilibrium solubility [2] | statistical significance of DoE factor cholesterol on equilibrium solubility [2] | statistical significance of DoE factor lecithin on equilibrium solubility [2] | statistical significance of DoE factor monoglyceride on equilibrium solubility [2] | statistical significance of DoE factor pH on equilibrium solubility [2] | statistical significance of DoE factor sodium oleate on equilibrium solubility [2] | statistical significance of DoE factor BS:PL on equilibrium solubility [3] | statistical significance of DoE factor bile salt on equilibrium solubility [3] | statistical significance of DoE factor cholesterol on equilibrium solubility [3] | statistical significance of DoE factor lecithin on equilibrium solubility [3] | statistical significance of DoE factor monoglyceride on equilibrium solubility [3] | statistical significance of DoE factor pH on equilibrium solubility [3] | statistical significance of DoE factor sodium oleate on equilibrium solubility [3] | statistical significance of DoE factor bile salt on equilibrium solubility [4] | statistical significance of DoE factor lecithin on equilibrium solubility [4] | statistical significance of DoE factor monoglyceride on equilibrium solubility [4] | statistical significance of DoE factor pH on equilibrium solubility [4] | statistical significance of DoE factor bile salt on equilibrium solubility [6] | also measured |
| --- | --- | --- | --- | --- | --- | --- | --- | --- | --- | --- | --- | --- | --- | --- | --- | --- | --- | --- | --- | --- | --- |
| O=C1NC(=O)C(c2ccccc2)(c2ccccc2)N1 [phenytoin] | no statistically significant difference | S ^d | NS ^e ^g | S ^d | NS ^e ^g | NS ^e | S ^d | S ^d | NS ^e | NS ^e ^g | NS ^e | NS ^e | NS ^e ^g | NS ^e ^g | NS ^e ^g | S ^d ^g | NS ^e | S ^d ^g | S ^d ^g | S ^d ^g | statistical comparison of dual level fasted with published fasted equilibrium solubility [1]: significantly different; statistical comparison of dual level fed with published fed equilibrium solubility ([1]; current fed arm vs published fed DoE): significantly different; direction of pH effect on solubility (standardized effect) ([2]; fasted and fed study arms, Figure 3): negative effect; direction of cholesterol effect on solubility (standardized effect) ([2]; fasted arm, Figure 3): significant negative solubility effect; statistical significance of DoE factor sodium oleate on equilibrium solubility [4]: S ^d ^g; pKa ([5]; no reference given): 8.1; statistical significance of DoE factor lecithin on equilibrium solubility [6]: S ^d ^g; statistical significance of DoE factor pH on equilibrium solubility [6]: S ^d; statistical significance of DoE factor sodium oleate on equilibrium solubility [6]: S ^d; variability of equilibrium solubility [7]: low solubility variability; significant DoE factors influencing solubility [7]: no significant factors; significant two way factor interactions on solubility ([7]; combined arm): significant interactions |
| CC(C)(Sc1cc(C(C)(C)C)c(O)c(C(C)(C)C)c1)Sc1cc(C(C)(C)C)c(O)c(C(C)(C)C)c1 [probucol] | no statistically significant difference | S ^d | NS ^e | NS ^e | NS ^e | NS ^e | NS ^e ^g | S ^d | NS ^e | NS ^e ^g | NS ^e | NS ^e ^g | NS ^e ^g | NS ^e ^g | S ^d ^g | S ^d ^g | S ^d ^g | S ^d ^g | S ^d ^g | NS ^e | statistical comparison of dual level fasted with published fasted equilibrium solubility [1]: significantly different; statistical significance of DoE factor lecithin on equilibrium solubility [6]: NS ^e; statistical significance of DoE factor pH on equilibrium solubility [6]: S ^d ^g; statistical significance of DoE factor sodium oleate on equilibrium solubility [6]: S ^d; variability of equilibrium solubility [7]: large variability; significant two way factor interactions on solubility ([7]; combined arm): significant interactions |
| CN1CC(=O)N2[C@H](c3ccc4c(c3)OCO4)c3[nH]c4ccccc4c3C[C@@H]2C1=O [tadalafil] | significant difference | NS ^e | NS ^e ^g | NS ^e | NS ^e ^g | NS ^e | NS ^e ^g | NS ^e ^g | NS ^e | NS ^e ^g | NS ^e | NS ^e | NS ^e | NS ^e | NS ^e ^g | S ^d ^g | NS ^e | NS ^e | NS ^e | S ^d ^g | statistical comparison of dual level fasted with published fasted equilibrium solubility [1]: significantly different; significant DoE factors influencing solubility ([2]; fasted and fed study arms together (14 possible values per drug), significance ±4): no significant factors; statistical significance of DoE factor sodium oleate on equilibrium solubility [4]: S ^d ^g; pKa ([5]; reported): 15; statistical significance of DoE factor lecithin on equilibrium solubility [6]: S ^d ^g; statistical significance of DoE factor pH on equilibrium solubility [6]: S ^d ^g; statistical significance of DoE factor sodium oleate on equilibrium solubility [6]: S ^d ^g; significance of sodium oleate for solubility ([7]; combined arm, Figure 4, significance ±2, positive solubility impact): significant |
| COc1cc(C(=O)NS(=O)(=O)c2ccccc2C)ccc1Cc1cn(C)c2ccc(NC(=O)OC3CCCC3)cc12 [zafirlukast] | significant difference | NS ^e | NS ^e ^g | S ^d | NS ^e ^g | S ^d | S ^d | NS ^e ^g | NS ^e | NS ^e ^g | NS ^e | NS ^e | NS ^e | NS ^e ^g | NS ^e | S ^d ^g | NS ^e | NS ^e | S ^d ^g | S ^d ^g | direction of cholesterol effect on solubility (standardized effect) ([2]; fasted arm, Figure 3): positive effect; direction of monoglyceride effect on solubility (standardized effect) ([2]; fasted arm, Figure 3): negative effect; pKa ([5]; reported): 4; statistical significance of DoE factor lecithin on equilibrium solubility [6]: S ^d ^g; statistical significance of DoE factor pH on equilibrium solubility [6]: S ^d; statistical significance of DoE factor sodium oleate on equilibrium solubility [6]: S ^d ^g; significant DoE factors influencing solubility [7]: no significant factors; significant two way factor interactions on solubility ([7]; combined arm): significant interactions |
